These results are taken from ChEMBL document CHEMBL5321200, “Discovery of the GSH responsive "Y-PROTACs" targeting ALK and CDK4/6 as a potential treatment for cancer” (Eur J Med Chem, 2023).

Activity calls are given as the source filed them. The calls are words filed in the database; no cut-off is given here.

What is called inhibition is the change of the read-out against control, counted positive when it falls. A high value points to strong suppression. Usually IC50 stands for the concentration that gives 50% inhibition.

Experiment [1] addresses ALK tyrosine kinase receptor (Homo sapiens) (UniProt Q9UM73). Put plainly: Inhibition of ALK (unknown origin) at 0.05 uM by LANCE Ultra TR-FRET assay relative to control. (Time-resolved FRET reads energy transfer from a long-lived donor to a nearby acceptor.)
Experiment [2] addresses Cyclin-dependent kinase 4 (Homo sapiens) (UniProt P11802). Description: Inhibition of CDK4 (unknown origin) at 1 uM by LANCE Ultra TR-FRET assay relative to control.
For experiment [3], the system named is NCI-H3122. Put plainly: Antiproliferative activity against human NCI-H3122 cells assessed as inhibition of cell growth incubated for 5 days by MTT assay. It is filed as functional, cell-based. Conditions: NCI-H3122, 120 h.
Experiment [4] deals with Protein cereblon/ALK tyrosine kinase receptor/Echinoderm microtubule-associated protein-like 4 (Homo sapiens) (UniProt Q9UM73+Q9HC35+Q96SW2). Put plainly: PROTAC activity at CRBN/EML4-ALK in human NCI-H3122 cells assessed as degradation of EML4-ALK fusion protein at 5 uM pretreated with MG132 for 4 hrs followed compound addition and measured after 24 hrs by Western blot analysis. It is filed as cell-based. Background: Immunoblotting shows a protein as a band on a membrane.
Sequence of Protein cereblon/ALK tyrosine kinase receptor/Echinoderm microtubule-associated protein-like 4 (Homo sapiens) (Q96SW2 whole entry partner, the tested form may be a part): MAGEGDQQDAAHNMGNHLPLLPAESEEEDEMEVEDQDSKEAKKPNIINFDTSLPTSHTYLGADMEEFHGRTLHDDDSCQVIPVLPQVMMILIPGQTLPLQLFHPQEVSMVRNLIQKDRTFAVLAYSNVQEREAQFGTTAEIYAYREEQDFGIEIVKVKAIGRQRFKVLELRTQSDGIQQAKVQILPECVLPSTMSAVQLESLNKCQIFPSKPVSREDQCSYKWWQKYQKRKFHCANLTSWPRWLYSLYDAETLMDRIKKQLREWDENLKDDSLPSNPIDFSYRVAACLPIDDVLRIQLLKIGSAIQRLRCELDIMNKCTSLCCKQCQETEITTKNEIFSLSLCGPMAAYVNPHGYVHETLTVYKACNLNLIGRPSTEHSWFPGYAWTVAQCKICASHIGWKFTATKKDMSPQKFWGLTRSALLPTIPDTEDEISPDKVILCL
Sequence of Protein cereblon/ALK tyrosine kinase receptor/Echinoderm microtubule-associated protein-like 4 (Homo sapiens) (Q9HC35 whole entry partner, the tested form may be a part): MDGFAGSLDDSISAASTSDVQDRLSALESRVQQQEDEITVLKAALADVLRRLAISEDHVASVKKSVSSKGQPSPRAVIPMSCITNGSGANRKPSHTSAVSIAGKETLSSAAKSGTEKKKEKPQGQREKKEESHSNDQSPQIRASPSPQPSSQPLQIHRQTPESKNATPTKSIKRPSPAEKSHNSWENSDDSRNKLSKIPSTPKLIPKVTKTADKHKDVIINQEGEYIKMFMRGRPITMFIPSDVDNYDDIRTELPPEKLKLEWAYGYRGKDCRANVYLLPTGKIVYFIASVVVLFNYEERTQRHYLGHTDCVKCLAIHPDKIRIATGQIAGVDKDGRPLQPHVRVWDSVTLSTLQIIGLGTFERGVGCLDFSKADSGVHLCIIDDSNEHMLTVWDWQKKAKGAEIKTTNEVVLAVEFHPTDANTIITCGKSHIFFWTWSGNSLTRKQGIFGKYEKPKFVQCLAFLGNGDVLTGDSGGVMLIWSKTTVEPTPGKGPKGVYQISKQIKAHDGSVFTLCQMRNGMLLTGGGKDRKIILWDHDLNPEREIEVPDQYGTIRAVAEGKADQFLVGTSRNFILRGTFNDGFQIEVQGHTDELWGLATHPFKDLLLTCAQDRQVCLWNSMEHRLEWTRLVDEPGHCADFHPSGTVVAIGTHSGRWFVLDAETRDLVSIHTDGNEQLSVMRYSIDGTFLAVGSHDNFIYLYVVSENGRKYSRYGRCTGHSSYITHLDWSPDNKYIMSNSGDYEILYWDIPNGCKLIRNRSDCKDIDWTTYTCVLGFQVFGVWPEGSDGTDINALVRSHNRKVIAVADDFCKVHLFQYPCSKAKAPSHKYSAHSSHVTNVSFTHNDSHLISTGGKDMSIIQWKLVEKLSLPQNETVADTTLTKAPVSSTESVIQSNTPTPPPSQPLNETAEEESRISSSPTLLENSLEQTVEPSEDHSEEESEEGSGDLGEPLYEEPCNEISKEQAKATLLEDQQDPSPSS
Sequence of Protein cereblon/ALK tyrosine kinase receptor/Echinoderm microtubule-associated protein-like 4 (Homo sapiens) (Q9UM73 19-1620 limits assumed): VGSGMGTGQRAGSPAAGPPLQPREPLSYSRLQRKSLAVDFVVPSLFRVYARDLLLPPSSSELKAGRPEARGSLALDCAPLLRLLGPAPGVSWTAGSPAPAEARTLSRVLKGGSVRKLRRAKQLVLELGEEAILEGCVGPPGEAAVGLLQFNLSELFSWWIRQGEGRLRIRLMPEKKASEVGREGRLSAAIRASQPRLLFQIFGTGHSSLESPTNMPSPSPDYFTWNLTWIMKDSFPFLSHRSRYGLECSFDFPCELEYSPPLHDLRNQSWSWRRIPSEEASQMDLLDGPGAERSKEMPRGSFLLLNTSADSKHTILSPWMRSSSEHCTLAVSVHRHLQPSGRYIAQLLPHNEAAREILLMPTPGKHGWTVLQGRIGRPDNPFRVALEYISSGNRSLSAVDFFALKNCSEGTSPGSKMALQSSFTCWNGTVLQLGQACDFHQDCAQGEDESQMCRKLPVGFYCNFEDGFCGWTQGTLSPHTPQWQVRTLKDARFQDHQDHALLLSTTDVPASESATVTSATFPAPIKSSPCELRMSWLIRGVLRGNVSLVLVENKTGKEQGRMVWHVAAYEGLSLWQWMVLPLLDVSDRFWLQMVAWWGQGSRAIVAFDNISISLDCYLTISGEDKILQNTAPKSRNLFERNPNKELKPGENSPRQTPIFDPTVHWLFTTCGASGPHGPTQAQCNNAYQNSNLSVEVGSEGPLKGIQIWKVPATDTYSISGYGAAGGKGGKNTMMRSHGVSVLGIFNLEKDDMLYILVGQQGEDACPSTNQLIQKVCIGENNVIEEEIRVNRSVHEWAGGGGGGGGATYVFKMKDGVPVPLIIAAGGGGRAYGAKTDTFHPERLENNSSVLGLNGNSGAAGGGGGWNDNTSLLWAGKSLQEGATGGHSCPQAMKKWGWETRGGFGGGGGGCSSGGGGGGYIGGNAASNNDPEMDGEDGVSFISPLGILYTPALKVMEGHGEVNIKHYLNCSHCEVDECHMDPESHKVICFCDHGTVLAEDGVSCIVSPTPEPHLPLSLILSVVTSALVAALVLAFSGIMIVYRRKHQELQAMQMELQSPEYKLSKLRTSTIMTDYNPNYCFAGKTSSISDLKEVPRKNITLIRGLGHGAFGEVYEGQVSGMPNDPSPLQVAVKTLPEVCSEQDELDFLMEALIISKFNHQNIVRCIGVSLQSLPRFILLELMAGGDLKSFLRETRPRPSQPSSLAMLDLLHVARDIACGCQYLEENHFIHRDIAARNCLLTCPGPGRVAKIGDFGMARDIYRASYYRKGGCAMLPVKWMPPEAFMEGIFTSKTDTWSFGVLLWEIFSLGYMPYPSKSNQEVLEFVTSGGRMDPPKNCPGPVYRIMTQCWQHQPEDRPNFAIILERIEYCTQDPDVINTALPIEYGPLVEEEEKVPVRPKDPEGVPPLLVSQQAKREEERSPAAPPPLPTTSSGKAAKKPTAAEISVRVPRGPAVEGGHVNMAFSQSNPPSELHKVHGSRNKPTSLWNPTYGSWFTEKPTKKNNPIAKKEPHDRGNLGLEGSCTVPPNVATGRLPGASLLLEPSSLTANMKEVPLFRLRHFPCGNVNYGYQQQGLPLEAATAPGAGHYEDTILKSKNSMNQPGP

The test system of experiment [5] is NCI-H3122. Put plainly: Induction of apoptosis in human NCI-H3122 cells assessed as late apoptotic cells at 1.25 uM incubated for 48 hrs by Annexin V-FITC/propidium iodide staining based flow cytometric analysis (reference value: 3.06%). The format is functional.
For experiment [6], the system named is NCI-H3122. Put plainly: Antitumor activity against human NCI-H3122 cells xenografted in BALB/c nude mouse assessed as tumor growth inhibition at 50 mg/kg, IG administered once daily for 18 days and measured after 12 hrs of last dose relative to control. The format is functional. To be noted: NCI-H3122, po, time 444 hrs, read-out: TGI. In general terms: In xenograft studies the graft and the host belong to different species.

The subject of a further experiment is Mus musculus. Description: In vivo PROTAC activity at CRBN/EML4-ALK in BALB/c nude mouse xenografted with human NCI-H3122 cells assessed as reduction in EML4-ALK protein expression in tumor at 75 mg/kg, IG administered once daily for 18 days and measured after 12 hrs of last dose by immunohistochemical analysis. The format is functional, organism-based. Conditions: time 444.0 hrs.

Sequence of ALK tyrosine kinase receptor (Homo sapiens) (Q9UM73 19-1620 limits assumed): as above
Sequence of Cyclin-dependent kinase 4 (Homo sapiens) (P11802 whole entry): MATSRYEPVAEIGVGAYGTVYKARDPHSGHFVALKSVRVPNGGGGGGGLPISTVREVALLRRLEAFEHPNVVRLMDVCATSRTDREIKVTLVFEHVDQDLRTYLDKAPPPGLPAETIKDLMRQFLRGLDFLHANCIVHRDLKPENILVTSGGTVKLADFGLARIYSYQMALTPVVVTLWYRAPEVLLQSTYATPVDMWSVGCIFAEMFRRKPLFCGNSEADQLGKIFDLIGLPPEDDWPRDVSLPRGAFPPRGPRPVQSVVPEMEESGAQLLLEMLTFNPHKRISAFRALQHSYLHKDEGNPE

For the compound `CC(=O)c1c(C)c2cnc(Nc3ccc(N4CCN(CC(=O)NCCSSCCN(CC(=O)NCCNc5cccc6c5C(=O)N(C5CCC(=O)NC5=O)C6=O)C(=O)CCCCCCC(=O)N5CCC(c6cc(OC(C)C)c(Nc7ncc(Cl)c(Nc8ccccc8S(=O)(=O)C(C)C)n7)cc6C)CC5)CC4)cn3)nc2n(C2CCCC2)c1=O` (configuration not stated), the results for the inhibition in experiment [1] and in experiment [2] were 68.3% and 80.2%, respectively. Moreover, the IC50 in the experiment on NCI-H3122 [3] was determined as 0.11 µM. Moreover, the result in experiment [4] was inactive. Further, the Activity in the experiment on NCI-H3122 [5] was found to be 10.54%. Moreover, the inhibition in vivo at 50 mg/kg in the experiment with NCI-H3122 [6] turned out to be 54.8%. Also, the result with Mus musculus was Active.
